Data on 9 molecules can be found in ChEMBL document CHEMBL1821719, “2,7-disubstituted-pyrrolo[2,1-f][1,2,4]triazines: new variant of an old template and application to the discovery of anaplastic lymphoma kinase (ALK) inhibitors with in vivo antitumor activity” (J Med Chem, 2011).

Bounds are passed on as bounds.

In general, IC50 refers to the point on the concentration scale where inhibition reaches its midpoint. As a reminder, the bioavailability is the share of a dose that reaches the circulation, judged against a reference dose that is usually intravenous. A low value points to poor availability. A word on the AUC: it is concentration integrated over time. A lower AUC goes with low exposure. In general, Papp A→B refers to how fast a substance crosses the layer from the apical side. The term Vd denotes the apparent volume that relates the amount in the body to the concentration in plasma or blood. Lower therefore signals confinement near the circulation. One may read the Tmax as the time from dosing to the highest level.

Series [1] addresses ALK tyrosine kinase receptor (Homo sapiens, UniProt Q9UM73). The experiment in a line: Inhibition of human recombinant ALK assessed as phosphorylated product using PLC-gamma/GST substrate by modified ELISA method. Background: An ELISA detects its analyte on a solid surface through an enzyme-linked reagent.
For the next series, the target named is Insulin receptor (Homo sapiens, UniProt P06213). Briefly: Inhibition of IR.
Chain of Insulin receptor (P06213 28-758 limits assumed): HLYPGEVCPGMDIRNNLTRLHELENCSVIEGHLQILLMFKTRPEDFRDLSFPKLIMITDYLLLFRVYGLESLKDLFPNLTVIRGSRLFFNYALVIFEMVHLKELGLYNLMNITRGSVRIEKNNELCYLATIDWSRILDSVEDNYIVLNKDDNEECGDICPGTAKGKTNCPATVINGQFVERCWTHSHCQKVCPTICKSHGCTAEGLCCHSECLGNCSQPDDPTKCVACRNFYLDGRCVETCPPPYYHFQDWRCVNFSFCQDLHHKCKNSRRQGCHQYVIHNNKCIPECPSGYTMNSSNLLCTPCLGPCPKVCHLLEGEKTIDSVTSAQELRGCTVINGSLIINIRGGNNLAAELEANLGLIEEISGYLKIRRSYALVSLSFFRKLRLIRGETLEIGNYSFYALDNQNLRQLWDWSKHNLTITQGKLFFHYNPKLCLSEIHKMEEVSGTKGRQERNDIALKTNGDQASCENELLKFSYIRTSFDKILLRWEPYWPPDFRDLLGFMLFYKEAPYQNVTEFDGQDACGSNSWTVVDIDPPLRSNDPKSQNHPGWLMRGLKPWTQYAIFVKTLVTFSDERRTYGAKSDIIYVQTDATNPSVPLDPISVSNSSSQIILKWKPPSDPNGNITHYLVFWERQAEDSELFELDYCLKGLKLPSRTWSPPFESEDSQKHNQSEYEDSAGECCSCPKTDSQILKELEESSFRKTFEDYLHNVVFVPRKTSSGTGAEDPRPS
Chain of Insulin receptor (P06213 763-1382 limits assumed): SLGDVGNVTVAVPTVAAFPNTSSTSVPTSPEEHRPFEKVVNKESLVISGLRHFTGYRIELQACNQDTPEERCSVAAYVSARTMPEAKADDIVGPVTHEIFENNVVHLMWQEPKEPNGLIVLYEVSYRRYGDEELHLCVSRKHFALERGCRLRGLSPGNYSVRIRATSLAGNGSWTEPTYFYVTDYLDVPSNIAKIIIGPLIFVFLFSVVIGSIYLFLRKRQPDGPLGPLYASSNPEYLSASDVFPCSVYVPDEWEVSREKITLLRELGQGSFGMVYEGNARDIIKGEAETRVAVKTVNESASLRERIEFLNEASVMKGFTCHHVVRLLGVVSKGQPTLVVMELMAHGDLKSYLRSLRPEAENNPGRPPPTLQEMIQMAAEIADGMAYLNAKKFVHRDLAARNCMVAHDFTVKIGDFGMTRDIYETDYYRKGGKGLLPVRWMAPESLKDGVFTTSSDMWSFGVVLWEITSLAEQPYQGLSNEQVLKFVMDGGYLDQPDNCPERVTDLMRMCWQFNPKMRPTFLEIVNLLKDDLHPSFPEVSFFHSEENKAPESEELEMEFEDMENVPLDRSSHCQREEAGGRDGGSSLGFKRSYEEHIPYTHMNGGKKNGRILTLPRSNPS
Series [2] has as its target NPM/ALK (Nucleophosmin/ALK tyrosine kinase receptor) (Homo sapiens, UniProt Q9UM73). Briefly: Inhibition of NPM/ALK phosphorylation in human KARPAS299 cells by ELISA. In kind it is cell-based, KARPAS-299.
Series [3] is described as follows: Oral bioavailability in Sprague-Dawley rat. The format is ADME, organism-based. As to conditions: in vivo.
Series [4] is described as follows: Antitumor activity against human SUP-M2 cells xenografted into SCID mouse at 30 mg/kg, po bid. The format is functional. Conditions: read-out: TGI.
A short description of series [5]: Antitumor activity against human SUP-M2 cells xenografted into SCID mouse at 55 mg/kg, po administered bid. As to conditions: read-out: TGI. In kind it is functional. On the technique in general: A xenograft is tissue or cells of one species grown in another, often human tumour cells in immunodeficient mice.
Series [6] has as its system Mus musculus. Briefly: Toxicity in SCID mouse assessed as weight loss at 10 mg/kg, po bid. The format is organism-based. On the set-up: dose 10 mg/kg, route oral. As to conditions: in vivo.
The subject of series [7] is Mus musculus. The experiment in a line: Toxicity in SCID mouse assessed as weight loss at 30 mg/kg, po bid. In kind it is organism-based. Conditions: in vivo. On the set-up: dose 30 mg/kg, route oral.
For series [8], the system named is Mus musculus. The experiment in a line: Toxicity in SCID mouse assessed as weight loss at 55 mg/kg, po bid. On the set-up: dose 55 mg/kg, route oral. The format is organism-based. Conditions: in vivo.
A short description of series [9]: AUC in SCID mouse at 10 mg/kg, po. The format is ADME, organism-based. Also on record: dose 10 mg/kg, route oral. As to conditions: plasma.
Series [10] is described as follows: AUC in Sprague-Dawley rat at 5 mg/kg, po. The format is ADME, organism-based. On the set-up: dose 5 mg/kg, route oral. Conditions: plasma.
Series [11] in a line: Oral bioavailability in SCID mouse at 10 mg/kg. The format is ADME, organism-based. Conditions: in vivo.
Series [12] is described as follows: Oral bioavailability in Sprague-Dawley rat at 5 mg/kg. In kind it is ADME, organism-based. As to conditions: in vivo.
Series [13] can be described thus: Inhibition of NPM-ALK phosphorylation in SUP-M2 cells xenografted in SCID mouse at 30 mg/kg, po measured upto 12 hrs by immunoblotting. The format is functional. As to conditions: SUP-M2, 12 h.
A short description of series [14]: Drug level in human SUP-M2 cells xenografted SCID mouse tumor at 30 mg/kg, po after 2 hrs by LC/MS analysis. In kind it is ADME, organism-based, Neoplasm. On the set-up: dose 30 mg/kg, route oral. Conditions: read-out: Drug uptake.
A short description of series [15]: Drug level in human SUP-M2 cells xenografted SCID mouse tumor at 30 mg/kg, po after 6 hrs by LC/MS analysis. In kind it is ADME, organism-based, Neoplasm. On the set-up: dose 30 mg/kg, route oral. Conditions: read-out: Drug uptake.
The nature of series [16]: Drug level in human SUP-M2 cells xenografted SCID mouse tumor at 30 mg/kg, po after 12 hrs by LC/MS analysis. In kind it is ADME, organism-based, Neoplasm. On the set-up: dose 30 mg/kg, route oral. Conditions: read-out: Drug uptake.
Series [17] can be described thus: Drug level in human SUP-M2 cells xenografted SCID mouse tumor at 30 mg/kg, po after 24 hrs by LC/MS analysis. The format is ADME, organism-based, Neoplasm. On the set-up: dose 30 mg/kg, route oral. Conditions: read-out: Drug uptake.
Series [18] in a line: Plasma concentration in human SUP-M2 cells xenografted SCID mouse at 30 mg/kg, po measured after 2 hrs by LC/MS analysis. Also on record: dose 30 mg/kg, route oral. The format is ADME, organism-based.
The nature of series [19]: Plasma concentration in human SUP-M2 cells xenografted SCID mouse at 30 mg/kg, po measured after 6 hrs by LC/MS analysis. In kind it is ADME, organism-based. Also on record: dose 30 mg/kg, route oral.
Series [20] can be described thus: Plasma concentration in human SUP-M2 cells xenografted SCID mouse at 30 mg/kg, po measured after 12 hrs by LC/MS analysis. Also on record: dose 30 mg/kg, route oral. In kind it is ADME, organism-based.
Series [21] in a line: Plasma concentration in human SUP-M2 cells xenografted SCID mouse at 30 mg/kg, po measured after 24 hrs by LC/MS analysis. The format is ADME, organism-based. On the set-up: dose 30 mg/kg, route oral.
Series [22] is described as follows: Drug level in human SUP-M2 cells xenografted SCID mouse tumor at 10 mg/kg, po bid for 12 days measured after 2 hrs of final dose by LC/MS analysis. Also on record: dose 10 mg/kg, route oral. As to conditions: read-out: Drug uptake. In kind it is ADME, organism-based, Neoplasm.
Series [23] can be described thus: Drug level in human SUP-M2 cells xenografted SCID mouse tumor at 30 mg/kg, po bid for 12 days measured after 2 hrs of final dose by LC/MS analysis. In kind it is ADME, organism-based, Neoplasm. On the set-up: dose 30 mg/kg, route oral. As to conditions: read-out: Drug uptake.
Series [24] in a line: Plasma concentration in human SUP-M2 cells xenografted SCID mouse at 10 mg/kg, po bid for 12 days measured after 2 hrs of final dose by LC/MS analysis. The format is ADME, organism-based. On the set-up: dose 10 mg/kg, route oral.
Series [25] can be described thus: Plasma concentration in human SUP-M2 cells xenografted SCID mouse at 30 mg/kg, po bid for 12 days measured after 2 hrs of final dose by LC/MS analysis. Also on record: dose 30 mg/kg, route oral. In kind it is ADME, organism-based.
A short description of series [26]: Plasma concentration in human SUP-M2 cells xenografted SCID mouse at 55 mg/kg, po bid for 12 days measured after 2 hrs of final dose by LC/MS analysis. In kind it is ADME, organism-based. On the set-up: dose 55 mg/kg, route oral.
The nature of series [27]: Antitumor activity against human SUP-M2 cells xenografted into SCID mouse at 10 mg/kg, po bid. The format is functional. Conditions: read-out: TGI.
Another series has as its system KARPAS-299. Briefly: Antiproliferative activity against human KARPAS299 cells by MTS assay. In kind it is functional, cell-based. (Formazan colour is commonly taken as a measure of viable cells.)
A short description of series [28]: Antiproliferative activity against human SUP-M2 cells after 48 hrs by MTS assay. The format is functional, cell-based. As to conditions: SUP-M2, 48 h.
A short description of series [29]: Apparent permeability from apical to basolateral side of human Caco2 cells. In kind it is ADME, cell-based. Conditions: Caco-2.
Series [30] in a line: Volume of distribution in SCID mouse at 1 mg/kg, iv. In kind it is ADME, organism-based. On the set-up: dose 1 mg/kg, route intravenous. Conditions: in vivo.
Series [31] is described as follows: Volume of distribution in Sprague-Dawley rat at 1 mg/kg, iv. In kind it is ADME, organism-based. On the set-up: dose 1 mg/kg, route intravenous. As to conditions: in vivo.
Series [32] in a line: AUC in SCID mouse at 1 mg/kg, iv. Conditions: plasma. In kind it is ADME, organism-based. On the set-up: dose 1 mg/kg, route intravenous.
Series [33] can be described thus: AUC in Sprague-Dawley rat at 1 mg/kg, iv. As to conditions: plasma. The format is ADME, organism-based. On the set-up: dose 1 mg/kg, route intravenous.
A short description of series [34]: Tmax in SCID mouse at 10 mg/kg, po. The format is ADME, organism-based. On the set-up: dose 10 mg/kg, route oral. As to conditions: in vivo.
A short description of series [35]: Tmax in Sprague-Dawley rat at 5 mg/kg, po. In kind it is ADME, organism-based. On the set-up: dose 5 mg/kg, route oral. As to conditions: in vivo.

Chain of ALK tyrosine kinase receptor (Q9UM73 whole entry): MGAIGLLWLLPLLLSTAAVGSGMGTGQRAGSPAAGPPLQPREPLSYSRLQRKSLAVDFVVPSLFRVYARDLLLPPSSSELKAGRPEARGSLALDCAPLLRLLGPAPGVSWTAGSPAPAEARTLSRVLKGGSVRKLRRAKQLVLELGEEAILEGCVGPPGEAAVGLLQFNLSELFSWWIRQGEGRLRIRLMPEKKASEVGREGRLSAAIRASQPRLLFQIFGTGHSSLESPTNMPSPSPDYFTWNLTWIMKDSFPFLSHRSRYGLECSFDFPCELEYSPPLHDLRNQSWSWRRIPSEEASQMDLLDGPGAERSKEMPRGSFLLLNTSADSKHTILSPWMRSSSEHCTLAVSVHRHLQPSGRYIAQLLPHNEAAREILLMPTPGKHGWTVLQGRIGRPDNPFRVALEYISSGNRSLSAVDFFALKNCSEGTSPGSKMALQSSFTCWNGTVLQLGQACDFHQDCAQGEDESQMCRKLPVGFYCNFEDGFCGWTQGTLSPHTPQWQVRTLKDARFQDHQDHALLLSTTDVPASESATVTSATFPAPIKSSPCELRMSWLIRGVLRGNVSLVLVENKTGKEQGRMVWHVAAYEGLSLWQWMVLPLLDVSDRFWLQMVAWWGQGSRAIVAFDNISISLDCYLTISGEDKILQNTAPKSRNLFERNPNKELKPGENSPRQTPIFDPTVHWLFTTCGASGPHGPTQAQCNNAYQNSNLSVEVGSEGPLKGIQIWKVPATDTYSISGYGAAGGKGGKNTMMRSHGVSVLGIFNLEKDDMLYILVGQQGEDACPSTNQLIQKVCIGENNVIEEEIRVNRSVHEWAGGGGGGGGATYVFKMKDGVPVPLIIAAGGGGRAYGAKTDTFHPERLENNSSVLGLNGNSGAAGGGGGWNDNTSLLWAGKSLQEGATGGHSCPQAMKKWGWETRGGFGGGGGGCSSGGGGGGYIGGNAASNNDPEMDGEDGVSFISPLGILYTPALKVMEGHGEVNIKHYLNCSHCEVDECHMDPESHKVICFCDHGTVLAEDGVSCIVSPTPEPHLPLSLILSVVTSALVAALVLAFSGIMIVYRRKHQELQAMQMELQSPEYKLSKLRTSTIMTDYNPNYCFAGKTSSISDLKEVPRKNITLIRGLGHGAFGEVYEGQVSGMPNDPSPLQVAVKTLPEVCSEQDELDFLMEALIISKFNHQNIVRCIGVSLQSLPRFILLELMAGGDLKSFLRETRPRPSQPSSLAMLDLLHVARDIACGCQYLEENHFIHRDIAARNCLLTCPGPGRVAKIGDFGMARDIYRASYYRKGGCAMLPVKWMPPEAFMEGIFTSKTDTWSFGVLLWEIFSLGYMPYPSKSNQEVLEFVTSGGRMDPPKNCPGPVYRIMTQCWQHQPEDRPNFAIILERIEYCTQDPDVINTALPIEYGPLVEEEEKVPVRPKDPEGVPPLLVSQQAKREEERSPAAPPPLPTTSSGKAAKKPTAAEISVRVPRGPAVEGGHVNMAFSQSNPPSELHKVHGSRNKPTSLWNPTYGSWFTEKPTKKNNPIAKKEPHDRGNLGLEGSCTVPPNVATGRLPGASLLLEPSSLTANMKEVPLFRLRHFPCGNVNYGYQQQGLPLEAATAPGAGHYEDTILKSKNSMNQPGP
Chain of NPM/ALK (Nucleophosmin/ALK tyrosine kinase receptor) (Q9UM73 whole entry): as above
Chain of NPM/ALK (Nucleophosmin/ALK tyrosine kinase receptor) (P06748 whole entry, further chain): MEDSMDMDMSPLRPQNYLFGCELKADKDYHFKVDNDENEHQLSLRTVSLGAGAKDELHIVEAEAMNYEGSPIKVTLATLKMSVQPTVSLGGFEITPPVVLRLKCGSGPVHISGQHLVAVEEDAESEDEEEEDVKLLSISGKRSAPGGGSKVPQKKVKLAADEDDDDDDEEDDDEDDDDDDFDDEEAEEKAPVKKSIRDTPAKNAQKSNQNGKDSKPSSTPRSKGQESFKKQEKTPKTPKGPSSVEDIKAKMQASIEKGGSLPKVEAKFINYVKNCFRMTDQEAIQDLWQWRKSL

Consider `CN1CCN(c2ccc(Nc3ncc4ccc(-c5ccccc5NS(C)(=O)=O)n4n3)cc2)CC1`, for which the concentration for half-maximal inhibition (IC50) stood at 260 nM in [1] and 1870 nM against Insulin receptor.

As to `COc1cc(N2CCN(C)CC2)ccc1Nc1ncc2ccc(-c3ccccc3OC)n2n1`, the IC50 was determined as 9 nM in [1], 391 nM against Insulin receptor and 100 nM in series [2].

As to `COc1cc(N2CCN(C[C@H](C)O)CC2)ccc1Nc1ncc2ccc(-c3ccccc3OC)n2n1`, the IC50 is 5 nM in series [1], 206 nM against Insulin receptor and 100 nM in series [2]. The molecule also came in with a bioavailability in series [3] of 8%.

`COc1cc(N2CCN(C[C@@H](C)O)CC2)ccc1Nc1ncc2ccc(-c3ccccc3OC)n2n1`: the IC50 was found to be 3.8 nM in [1], 160 nM on Insulin receptor and 80 nM in series [2]. The bioavailability in [3] stood at 6%.

Regarding `COc1cc(N2CCN(N3CCOCC3)CC2)ccc1Nc1ncc2ccc(-c3ccccc3OC)n2n1`, the figures for the IC50 (in [1]; against Insulin receptor; in [2]) were 9 nM, 357 nM and 85 nM, respectively. The same molecule gave a bioavailability in series [3] of 34%. Further, the inhibition in vivo at 30 mg/kg in [4] was determined as 60%. In addition, in series [5], the inhibition in vivo at 55 mg/kg amounted to 98%. Also, the Activity result in the series with Mus musculus [6], in the series on Mus musculus [7] and in the series on Mus musculus [8] was “Non-toxic” each time.

Take `COc1cc(N2CCN(C)CC2)ccc1Nc1ncc2ccc(-c3ccccc3N(C)S(C)(=O)=O)n2n1`: the IC50 in series [1] was 9 nM; against Insulin receptor it was 934 nM; in series [2], 200 nM.

Consider `COc1cc(N2CCN(C[C@H](C)O)CC2)ccc1Nc1ncc2ccc(-c3ccccc3N(C)S(C)(=O)=O)n2n1`, for which the AUC in series [9] was 2520 ng·h/mL; in series [10] it was 610 ng·h/mL; in series [32], 661 ng·h/mL; in [33] it was 343 ng·h/mL. The values for the bioavailability in series [11], in series [12] and in series [3] were 36%, 38% and 38%, respectively. Further, the inhibition in vivo at 30 mg/kg turned out to be 75% in series [13] and 81% in [4]. Further, the concentration at 2 h in series [14] turned out to be 1440 ng/g; in series [18] it was 2160 ng/mL; in series [22], 1530 ng/g; in series [23] it was 3120 ng/g; in series [24], 516 ng/mL; in series [25] it was 1580 ng/mL. In series [26], this molecule came in with a concentration at 2 h of 2890 ng/mL. Further, the concentration at 6 h in [15] was found to be 792 ng/g; in series [19] it was 950 ng/mL. Also, the concentration at 12 h was determined as 235 ng/g in series [16] and 155 ng/mL in series [20]. Also, the concentration at 24 h in series [17] is under 30 ng/g; in [21], under 10 ng/mL. For the same molecule, in [27], the inhibition in vivo at 10 mg/kg came out at 35%. For the same molecule, the inhibition in vivo at 55 mg/kg in series [5] was 98%. In addition, the IC50 with KARPAS-299 came out at 477 nM; in series [28] it was 87 nM. Moreover, in series [29], the Papp A→B stood at 20.3 ×10⁻⁶ cm/s. In addition, the Vd was 2.1 L/kg in series [30] and 3.3 L/kg in series [31]. For the same molecule, the Tmax in [34] came to 1 h; in series [35], 2 h.

As for `COc1cc(N2CCN(C[C@@H](C)O)CC2)ccc1Nc1ncc2ccc(-c3ccccc3N(C)S(C)(=O)=O)n2n1`, the bioavailability in series [3] was found to be 41%.

As for `COc1cc(N2CCC(N3CCOCC3)CC2)ccc1Nc1ncc2ccc(-c3ccccc3N(C)S(C)(=O)=O)n2n1`, the IC50 in series [1] came out at 7 nM; at Insulin receptor, 809 nM; in series [2], 50 nM. Also, the bioavailability in series [3] came to 47%. Also, the inhibition in vivo at 30 mg/kg in [4] came to 50%. The inhibition in vivo at 55 mg/kg in series [5] came out at 96%. The Activity result with Mus musculus [6], in the series on Mus musculus [7] and with Mus musculus [8] was “Non-toxic” each time.
